This note sets out measurements from ChEMBL document CHEMBL4342507, “Targeting YAP Degradation by a Novel 1,2,4-Oxadiazole Derivative via Restoration of the Function of the Hippo Pathway” (ACS Med Chem Lett, 2020).

The target of data set [1] is T1, Serine/threonine-protein kinase LATS1 (Homo sapiens) (UniProt O95835).
T1 sequence (whole entry): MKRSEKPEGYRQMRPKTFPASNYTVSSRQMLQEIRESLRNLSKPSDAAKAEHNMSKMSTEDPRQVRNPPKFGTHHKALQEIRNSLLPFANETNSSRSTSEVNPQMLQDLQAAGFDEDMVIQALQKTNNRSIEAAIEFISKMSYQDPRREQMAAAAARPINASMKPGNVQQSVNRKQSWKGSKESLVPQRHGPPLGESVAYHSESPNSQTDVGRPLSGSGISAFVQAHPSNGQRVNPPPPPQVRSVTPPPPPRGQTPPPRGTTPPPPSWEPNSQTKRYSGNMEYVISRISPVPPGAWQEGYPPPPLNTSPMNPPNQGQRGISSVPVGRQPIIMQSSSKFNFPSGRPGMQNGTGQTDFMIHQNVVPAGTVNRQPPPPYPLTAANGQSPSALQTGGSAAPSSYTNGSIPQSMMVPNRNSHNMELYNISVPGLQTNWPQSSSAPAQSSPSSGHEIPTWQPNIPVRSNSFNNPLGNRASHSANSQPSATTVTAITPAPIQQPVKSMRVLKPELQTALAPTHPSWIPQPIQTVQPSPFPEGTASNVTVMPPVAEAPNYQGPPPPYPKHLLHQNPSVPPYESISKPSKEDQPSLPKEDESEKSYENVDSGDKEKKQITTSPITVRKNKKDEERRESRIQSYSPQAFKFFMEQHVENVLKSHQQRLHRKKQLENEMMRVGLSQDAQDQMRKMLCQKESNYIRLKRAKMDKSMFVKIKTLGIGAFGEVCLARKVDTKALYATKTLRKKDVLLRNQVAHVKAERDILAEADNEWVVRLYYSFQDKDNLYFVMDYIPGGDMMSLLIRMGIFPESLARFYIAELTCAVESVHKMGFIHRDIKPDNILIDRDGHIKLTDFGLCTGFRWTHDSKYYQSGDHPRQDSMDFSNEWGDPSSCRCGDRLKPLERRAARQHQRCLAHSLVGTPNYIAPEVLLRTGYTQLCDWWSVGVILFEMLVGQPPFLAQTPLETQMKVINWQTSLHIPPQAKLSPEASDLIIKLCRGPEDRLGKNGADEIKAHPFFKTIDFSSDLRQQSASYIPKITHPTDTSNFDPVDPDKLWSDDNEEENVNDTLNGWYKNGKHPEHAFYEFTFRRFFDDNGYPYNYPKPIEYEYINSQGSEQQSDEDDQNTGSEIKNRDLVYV
Description: Activation of LATS1 in human MDA-MB-231 cells assessed as increase in phosphorylation at Ser909 residue measured after 24 hrs by Western blot analysis. The class given is cell-based. A general note: A western blot detects proteins with antibodies after separation by electrophoresis.

The target in data set [2] is T1, Serine/threonine-protein kinase LATS1 (Homo sapiens). Kind of data set: Activation of LATS1 in human PC9 cells assessed as increase in YAP phosphorylation at Ser397 at 0.25 to 1.5 uM measured after 24 to 48 hrs by immunoblotting analysis. Format: cell-based.
Data set [3] concerns PC-3. Kind of data set: Effect on MOB expression in human PC3 cells at 0.25 to 1.5 uM measured after 24 hrs by Western blot analysis. Format: functional, cell-based.
The subject of data set [4] is Mus musculus. Description: Downregulation of cyclin D1 protein expression in tumor of athymic Nude-Foxn1nu BALB/c mouse xenografted with human MDA-MB-231 cells at 200 mg/kg, po administered once daily via gavage for 40 days by immunoblotting analysis. The class given is functional, organism-based. Background: Xenograft models place foreign cells or tissue in a host animal.

The target of data set [5] is T1, Serine/threonine-protein kinase LATS1 (Homo sapiens). Kind of data set: Activation of LATS1 in human […] cells assessed as increase in YAP phosphorylation at Ser397 at 0.25 to 1.5 uM measured after 12 to 24 hrs by immunoblotting analysis. Format: cell-based.
The target is the same in data set [6]. Kind of data set: Activation of LATS1 in human PC3 cells assessed as increase in YAP phosphorylation at Ser397 at 0.25 to 1.5 uM measured after 24 to 48 hrs by immunoblotting analysis. Format: cell-based.
A short description of data set [7]: Acute toxicity in athymic Nude-Foxn1nu BALB/c mouse xenografted with human MDA-MB-231 cells assessed as effect on serum albumin level at 200 mg/kg, po administered once daily via gavage for 14 days. The class given is organism-based. To be noted: in vivo, 336 h.
Data set [8] has as its target T1, Serine/threonine-protein kinase LATS1 (Homo sapiens). Description: Activation of LATS1 in human MDA-MB-231 cells assessed as increase in YAP phosphorylation at Ser397 at 0.25 to 1.5 uM measured after 24 to 48 hrs by immunoblotting analysis. Format: cell-based.
Data set [9] has as its system PC-3. Kind of data set: Effect on MST2 expression in human PC3 cells at 0.25 to 1.5 uM measured after 24 hrs by Western blot analysis. The class given is functional, cell-based.
For data set [10], the system named is SUM-159-PT. Kind of data set: Cytostatic activity against human SUM159 cells assessed as cell viability at concentration of greater than IC50 measured up to 72 hrs by MTT assay. The class given is functional, cell-based.
Data set [11] can be described thus: Acute toxicity in athymic Nude-Foxn1nu BALB/c mouse xenografted with human MDA-MB-231 cells assessed as effect on serum AST level at 200 mg/kg, po administered once daily via gavage for 14 days. As to conditions: in vivo, 336 h. The class given is organism-based.
For another data set, the system named is MDA-MB-231. Description: Antitumor activity against human MDA-MB-231 cells xenografted in athymic Nude-Foxn1nu BALB/c mouse assessed as tumor growth suppression at 200 mg/kg, po administered once daily via gavage for 40 days and measured twice a week during treatment period by caliper method relative to control. Format: functional. To be noted: MDA-MB-231, po, 960 h.

In data set [12] the test system is PC-3. Description: Downregulation of TAZ protein expression in human PC3 cells at 0.25 to 1.5 uM measured after 24 to 48 hrs by immunoblotting analysis. The class given is functional, cell-based.
In data set [13] the target is T1, Serine/threonine-protein kinase LATS1 (Homo sapiens). Description: Activation of LATS1 in triple-negative human SUM159 cells assessed as induction of YAP degradation by measuring suppression of YAP protein expression at 0.25 to 1 uM measured after 12 hrs by Western blot analysis.
Data set [14] concerns SUM-159-PT. Kind of data set: Effect on MOB expression in human SUM159 cells at 0.25 to 1.5 uM measured after 12 hrs by Western blot analysis. The class given is functional, cell-based.
The target of data set [15] is T1, Serine/threonine-protein kinase LATS1 (Homo sapiens). Kind of data set: Activation of LATS1 in human PC3 cells assessed as increase in phosphorylation at Thr1079 residue measured after 24 hrs by Western blot analysis. The class given is cell-based.
Data set [16] has the same target. Kind of data set: Activation of LATS1 in triple-negative human SUM159 cells assessed as effect on YAP mRNA level at 0.25 to 1 uM measured after 12 hrs by Trizol reagent based RT-PCR analysis.
Data set [17] in a line: Acute toxicity in athymic Nude-Foxn1nu BALB/c mouse xenografted with human MDA-MB-231 cells assessed as effect on serum creatinine level at 200 mg/kg, po administered once daily via gavage for 14 days. The class given is organism-based. To be noted: in vivo, 336 h.
In data set [18] the test system is Mus musculus. Description: Downregulation of C-myc protein expression in tumor of athymic Nude-Foxn1nu BALB/c mouse xenografted with human MDA-MB-231 cells at 200 mg/kg, po administered once daily via gavage for 40 days by immunoblotting analysis. Format: functional, organism-based.
Data set [19] deals with Serine/threonine-protein kinase 3/4 (Homo sapiens) (UniProt Q13043+Q13188). Kind of data set: Activation of MST1/2 in human PC3 cells assessed as effect on phosphorylation at T183/T180 residues at 0.25 to 1.5 uM measured after 24 hrs by Western blot analysis. The class given is cell-based.
Chain of Serine/threonine-protein kinase 3/4 (Homo sapiens) (Q13043 whole entry, looked up): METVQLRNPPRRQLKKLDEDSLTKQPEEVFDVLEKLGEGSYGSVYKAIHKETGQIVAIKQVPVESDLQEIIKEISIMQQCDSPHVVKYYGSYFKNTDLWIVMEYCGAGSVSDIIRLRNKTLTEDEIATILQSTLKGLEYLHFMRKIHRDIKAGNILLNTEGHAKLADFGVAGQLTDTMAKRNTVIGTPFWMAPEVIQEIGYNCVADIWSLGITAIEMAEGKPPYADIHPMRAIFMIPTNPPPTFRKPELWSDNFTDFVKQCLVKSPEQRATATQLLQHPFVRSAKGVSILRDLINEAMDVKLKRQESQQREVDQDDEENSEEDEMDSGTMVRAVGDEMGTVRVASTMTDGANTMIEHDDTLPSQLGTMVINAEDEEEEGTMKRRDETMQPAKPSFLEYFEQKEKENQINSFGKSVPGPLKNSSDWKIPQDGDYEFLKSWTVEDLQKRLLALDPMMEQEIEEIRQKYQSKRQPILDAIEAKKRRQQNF
Chain of Serine/threonine-protein kinase 3/4 (Homo sapiens) (Q13188 whole entry, looked up): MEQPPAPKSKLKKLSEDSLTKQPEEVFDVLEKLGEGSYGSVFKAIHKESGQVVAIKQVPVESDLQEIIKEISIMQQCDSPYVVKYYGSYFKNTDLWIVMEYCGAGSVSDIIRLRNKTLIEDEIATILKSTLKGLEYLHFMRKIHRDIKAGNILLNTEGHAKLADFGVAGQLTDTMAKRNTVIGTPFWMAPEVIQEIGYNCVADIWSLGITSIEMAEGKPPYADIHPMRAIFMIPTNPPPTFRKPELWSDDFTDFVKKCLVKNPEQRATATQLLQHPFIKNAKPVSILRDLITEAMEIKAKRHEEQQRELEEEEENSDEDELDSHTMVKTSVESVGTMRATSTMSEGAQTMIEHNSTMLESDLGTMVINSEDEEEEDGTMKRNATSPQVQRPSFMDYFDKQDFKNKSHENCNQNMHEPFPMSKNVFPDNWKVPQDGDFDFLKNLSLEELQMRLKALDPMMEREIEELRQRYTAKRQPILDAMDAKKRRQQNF

The structures appear in SMILES notation. Activity calls are given as the source filed them. No cut-off for these calls is given here.

The inhibition in vivo is the share of the control response that was lost under treatment.

As for `CC(=O)Nc1ccc(NC(=O)Nc2cccc(-c3nc(-c4ccc(NC(=O)c5cccnc5)cc4Cl)no3)c2)cc1C(F)(F)F`, the Activity entry in [1] is “Dose-dependent effect”; in data set [7], “Non-Toxic”; in [11] it was “Non-Toxic”; in data set [15], “Dose-dependent effect”; in [17], “Non-Toxic”. Further, the result (in [2]; in the data set with PC-3 [3]; in data set [6]; in data set [8]; in the data set on PC-3 [9]; with SUM-159-PT [14]) was inactive. The result in data set [16] and in data set [19] was inactive. In addition, the inhibition result in the data set with Mus musculus [4] and in the data set on Mus musculus [18] was “Active” throughout. Further, the outcome (in data set [5]; with SUM-159-PT [10]; in data set [13]) was Active. Further, the inhibition in vivo at 200 mg/kg in the data set on MDA-MB-231 was 65%. Also, in the data set with PC-3 [12], the inhibition result was “inactive”.
